Assay results from US9682940B2, “Indazole derivatives useful as CB-1 inverse agonists” (Janssen Pharmaceutica NV, priority 2015, dated 2017).

Experiments:
[1] = molecular target: Human CB1R (Cannabanoid receptor 1) (Homo sapiens (Human), UniProt P21554); test: CB-1 in vitro cAMP (HTRF) assay in HEK-293 cells; type: cell-based; settings: HEK-293 cells stably transfected with human CB1R, 250 nM Forskolin, mean where tested more than once, read-out: CB-1 (HEK_cAMP) EC50
Procedure, shortened: (§1)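 HEK-293 cells stably expressing human CB1 or CB2 plated overnight, then tested in HBSS/5 mM HEPES/0.1% BSA with 0.5 mM IBMX and forskolin (1.5 μM working dilution). Intracellular cAMP quantified by competitive HTRF immunoassay (d2-cAMP, cryptate anti-cAMP) against a cAMP standard curve; compounds as 1/3 serial dilutions from 10 mM DMSO stocks.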

[2] = molecular target: Human CB2R (Cannabanoid receptor 2) (Homo sapiens (Human), UniProt P34972); test: CB-2 in vitro cAMP (HTRF) assay in HEK-293 cells; type: cell-based; settings: HEK-293 cells stably transfected with human CB2R, 250 nM Forskolin, mean where tested more than once, read-out: CB-2 (HEK_cAMP) EC50
Sequence of Human CB2R (Cannabanoid receptor 2) (P34972 whole entry): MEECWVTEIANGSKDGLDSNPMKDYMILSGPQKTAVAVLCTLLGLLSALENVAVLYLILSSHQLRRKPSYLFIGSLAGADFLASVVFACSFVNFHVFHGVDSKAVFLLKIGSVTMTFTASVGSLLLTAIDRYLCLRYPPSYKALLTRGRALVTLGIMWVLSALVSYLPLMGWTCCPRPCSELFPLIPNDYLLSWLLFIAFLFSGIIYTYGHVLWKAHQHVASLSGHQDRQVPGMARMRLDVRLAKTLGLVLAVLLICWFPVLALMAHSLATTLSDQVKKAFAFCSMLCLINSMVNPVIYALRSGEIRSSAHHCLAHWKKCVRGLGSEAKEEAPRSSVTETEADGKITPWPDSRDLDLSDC
Procedure, shortened: as §1

Sequence of Human CB1R (Cannabanoid receptor 1) (P21554 whole entry): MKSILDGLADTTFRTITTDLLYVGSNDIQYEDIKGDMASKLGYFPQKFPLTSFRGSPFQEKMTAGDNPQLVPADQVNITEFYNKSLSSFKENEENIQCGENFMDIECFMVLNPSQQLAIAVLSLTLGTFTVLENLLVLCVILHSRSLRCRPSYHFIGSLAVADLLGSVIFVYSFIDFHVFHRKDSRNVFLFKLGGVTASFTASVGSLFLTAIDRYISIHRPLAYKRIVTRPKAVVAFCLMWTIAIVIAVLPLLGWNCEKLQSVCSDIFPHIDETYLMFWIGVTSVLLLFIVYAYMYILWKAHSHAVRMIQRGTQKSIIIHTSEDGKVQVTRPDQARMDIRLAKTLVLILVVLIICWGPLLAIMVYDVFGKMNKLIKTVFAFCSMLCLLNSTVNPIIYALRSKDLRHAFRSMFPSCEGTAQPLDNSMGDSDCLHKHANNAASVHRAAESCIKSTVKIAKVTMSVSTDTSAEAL

Structure (SMILES) | EC50 [1] [nM] | EC50 [2] [nM]
O=C(O)c1ccc(C(O)(c2ccc(Cl)cc2)c2ccc3[nH]nc(C4CCN(S(=O)(=O)C(F)(F)F)CC4)c3c2)cc1 (stereo not shown) [Compound 187] | 3040 | > 10000
O=S(=O)(N1CCC(c2nn(C3CC3)c3ccc(C(c4ccc(Cl)cc4)c4ccc(Cl)cc4)cc23)CC1)C(F)(F)F [Compound 105] | 8 | > 10000
CNC(=O)c1cc(S(=O)(=O)N2CCC(c3c4cc(C(c5ccc(Cl)cc5)c5ccc(Cl)cc5)ccc4nn3C3CC3)CC2)ccc1Cl [Compound 170, 5-(4-(5-(bis(4-chlorophenyl)methyl)-2-cyclopropyl-2H-indazol-3-yl)piperidin-1-ylsulfonyl)-2-chloro-N-methylbenzamide] | 9 | > 10000
COC(=O)Cn1nc(N2CCN(S(=O)(=O)C(F)(F)F)CC2)c2cc(C(c3ccc(Cl)cc3)c3ccc(Cl)cc3)ccc21 [Compound 20] | 165 | > 10000
O=C(O)CCS(=O)(=O)N1CCC(c2c3cc(C(c4ccc(Cl)cc4)c4ccc(Cl)cc4)ccc3nn2C2CC2)CC1 [Compound 133] | 3910 | > 10000
O=C(NCc1ccccc1)N1CCC(c2n[nH]c3ccc(C(c4ccc(Cl)cc4)c4ccc(Cl)cc4)cc23)CC1 [Compound 262] | 672 | > 10000
Cn1nc(C2CCN(S(=O)(=O)c3ccc(C(=O)O)cc3)CC2)c2cc(C(c3ccc(Cl)cc3)c3ccc(Cl)cc3)ccc21 [Compound 62] | 845 | > 10000
O=C(O)c1cccc(S(=O)(=O)N2CCC(c3n[nH]c4ccc(C(c5ccc(Cl)cc5)c5ccc(Cl)cc5)cc34)CC2)c1 [Compound 61] | 191 | > 10000
O=C(O)Cc1cccc(N2CCC(c3c4cc(C(c5ccc(Cl)cc5)c5ccc(Cl)cc5)ccc4nn3C3CC3)CC2)c1 [Compound 185] | 833 | > 10000
NC(=O)c1ccccc1S(=O)(=O)N1CCC(c2nn(CCO)c3ccc(C(c4ccc(Cl)cc4)c4ccc(Cl)cc4)cc23)CC1 [Compound 70] | 428 | > 10000
COc1ccc(S(=O)(=O)N2CCC(c3c4cc(C(c5ccc(Cl)cc5)c5ccc(Cl)cc5)ccc4nn3C3CC3)CC2)cc1 [Compound 152, 5-(bis(4-chlorophenyl)methyl)-2-cyclopropyl-3-(1-(4-methoxyphenylsulfonyl)piperidin-4-yl)-2H-indazole] | 17 | > 10000
O=S(=O)(N1CCN(c2nn(CCO)c3ccc(C(c4ccc(Cl)cc4)c4ccc(Cl)cc4)cc23)CC1)C(F)(F)F [Compound 42] | 6 | > 10000
NS(=O)(=O)c1ccc(C(=O)N2CCC(c3nn(CCO)c4ccc(C(c5ccc(Cl)cc5)c5ccc(Cl)cc5)cc34)CC2)cc1 [Compound 72] | 39 | > 10000
NC(=O)c1ccc(S(=O)(=O)N2CCC(c3c4cc(C(c5ccc(Cl)cc5)c5ccc(Cl)cc5)ccc4nn3C3CC3)CC2)cc1Cl [Compound 153, 4-(4-(5-(bis(4-chlorophenyl)methyl)-2-cyclopropyl-2H-indazol-3-yl)piperidin-1-ylsulfonyl)-2-chlorobenzamide] | 17 | > 10000
NS(=O)(=O)N1CCC(c2n[nH]c3ccc(C(c4ccc(Cl)cc4)c4ccc(Cl)cc4)cc23)CC1 [Compound 23] | 2150 | > 10000
O=C(O)CCS(=O)(=O)N1CCC(c2nn(CCO)c3ccc(C(c4ccc(Cl)cc4)c4ccc(Cl)cc4)cc23)CC1 [Compound 83] | 1570 | > 10000
NC(=O)c1cccc(CN2CCC(c3n[nH]c4ccc(C(c5ccc(Cl)cc5)c5ccc(Cl)cc5)cc34)CC2)c1 [Compound 220] | 27 | > 10000
Cn1nc(C2CCN(S(=O)(=O)c3cccc(C(=O)O)c3)CC2)c2cc(C(c3ccc(Cl)cc3)c3ccc(Cl)cc3)ccc21 [Compound 63] | 66 | > 10000
NC(=O)c1ccccc1C(=O)N1CCC(c2nn(C3CC3)c3ccc(C(c4ccc(Cl)cc4)c4ccc(Cl)cc4)cc23)CC1 [Compound 96] | 2240 | > 10000
O=C(O)c1cccc(N2CCC(c3c4cc(C(c5ccc(Cl)cc5)c5ccc(Cl)cc5)ccc4nn3C3CC3)CC2)c1 [Compound 183] | 77 | > 10000
O=C(CO)N1CCC(c2c3cc(C(c4ccc(Cl)cc4)c4ccc(Cl)cc4)ccc3nn2C2CC2)CC1 [Compound 110] | 134 | > 10000
O=C(O)c1cc(S(=O)(=O)N2CCC(c3c4cc(C(c5ccc(Cl)cc5)c5ccc(Cl)cc5)ccc4nn3C3CC3)CC2)ccc1F [Compound 162, 5-(4-(5-(bis(4-chlorophenyl)methyl)-2-cyclopropyl-2H-indazol-3-yl)piperidin-1-ylsulfonyl)-2-fluorobenzoic acid] | 4 | 5200

Structure (SMILES) | EC50 [1] [nM] | EC50 [2] [nM]
NC(=O)c1cccc(C(=O)N2CCC(c3nn(C4CC4)c4ccc(C(c5ccc(Cl)cc5)c5ccc(Cl)cc5)cc34)CC2)c1 [Compound 98] | 64 | > 10000
O=C(O)c1cccc(CN2CCC(c3c4cc(C(c5ccc(Cl)cc5)c5ccc(Cl)cc5)ccc4nn3C3CC3)CC2)n1 [Compound 251, 6-((4-(5-(bis(4-chlorophenyl)methyl)-2-cyclopropyl-2H-indazol-3-yl)piperidin-1-yl)methyl)picolinic acid] | 14 | > 10000
O=C(O)c1cccc(N2CCC(c3n[nH]c4ccc(C(c5ccc(Cl)cc5)c5ccc(Cl)cc5)cc34)CC2)c1 [Compound 212] | 1830 | > 10000
COC(=O)CC(=O)N1CCC(c2n[nH]c3ccc(C(c4ccc(Cl)cc4)c4ccc(Cl)cc4)cc23)CC1 [Compound 51] | 152 | > 10000
O=C(O)COc1ccc(N2CCC(c3n[nH]c4ccc(C(c5ccc(Cl)cc5)c5ccc(Cl)cc5)cc34)CC2)cc1 [Compound 211] | 4690 | > 10000
O=C(O)c1cccc(S(=O)(=O)N2CCC(c3nn(C4CC4)c4ccc(C(c5ccc(Cl)cc5)c5ccc(Cl)cc5)cc34)CC2)c1 [Compound 88] | 115 | > 10000
Cn1nc(C2CCN(S(=O)(=O)c3ccc(C(N)=O)cc3)CC2)c2cc(C(c3ccc(Cl)cc3)c3ccc(Cl)cc3)ccc21 [Compound 64] | 24 | > 10000
O=S(=O)(N1CCC(c2nn(-c3ccccc3Cl)c3ccc(C(c4ccc(Cl)cc4)c4ccc(Cl)cc4)cc23)CC1)C(F)(F)F [Compound 48] | 31 | > 10000
COc1cccc(S(=O)(=O)N2CCC(Nc3n[nH]c4ccc(C(c5ccc(Cl)cc5)c5ccc(Cl)cc5)cc34)CC2)c1 [Compound 101] | 293 | > 10000
O=S(=O)(C(F)F)N1CCC(c2n[nH]c3ccc(C(c4ccc(Cl)cc4)c4ccc(Cl)cc4)cc23)CC1 [Compound 219] | 1540 | > 10000
O=C(O)c1ccc(CN2CCC(c3c4cc(C(c5ccc(Cl)cc5)c5ccc(Cl)cc5)ccc4nn3C3CC3)CC2)s1 [Compound 242, 5-((4-(5-(bis(4-chlorophenyl)methyl)-2-cyclopropyl-2H-indazol-3-yl)piperidin-1-yl)methyl)thiophene-2-carboxylic acid] | 16 | > 10000
O=C(NCCO)c1ccc(-n2nc(C3CCN(S(=O)(=O)C(F)(F)F)CC3)c3cc(C(c4ccc(Cl)cc4)c4ccc(Cl)cc4)ccc32)cc1 [Compound 229] | 37 | > 10000
NC(=O)COc1ccc(N2CCC(c3n[nH]c4ccc(C(c5ccc(Cl)cc5)c5ccc(Cl)cc5)cc34)CC2)cc1 [Compound 217] | 1030 | 4100
COc1cc(S(=O)(=O)N2CCC(c3c4cc(C(c5ccc(Cl)cc5)c5ccc(Cl)cc5)ccc4nn3C3CC3)CC2)ccc1C(N)=O [Compound 146, 4-(4-(5-(bis(4-chlorophenyl)methyl)-2-cyclopropyl-2H-indazol-3-yl)piperidin-1-ylsulfonyl)-2-methoxybenzamide] | 7 | > 10000
O=C(O)c1cccc(S(=O)(=O)N2CCC(c3c4cc(C(c5ccc(Cl)cc5)c5ccc(Cl)cc5)ccc4nn3C3CC3)CC2)c1 [Compound 116, 3-(4-(5-(bis(4-chlorophenyl)methyl)-2-cyclopropyl-2H-indazol-3-yl)piperidin-1-ylsulfonyl)benzoic acid] | 5 | 7990
O=C(O)c1ccc(CN2CCC(c3nn(C4CC4)c4ccc(C(c5ccc(Cl)cc5)c5ccc(Cl)cc5)cc34)CC2)s1 [Compound 254] | 16 | > 10000
O=C(O)CCS(=O)(=O)N1CCC(c2nn(C3CC3)c3ccc(C(c4ccc(Cl)cc4)c4ccc(Cl)cc4)cc23)CC1 [Compound 109] | 729 | > 10000
O=C(O)Cn1nc(C2CCN(S(=O)(=O)C(F)(F)F)CC2)c2cc(C(c3ccc(Cl)cc3)c3ccc(Cl)cc3)ccc21 [Compound 73] | 762 | > 10000
O=C(O)C(=O)N1CCC(c2c3cc(C(c4ccc(Cl)cc4)c4ccc(Cl)cc4)ccc3nn2C2CC2)CC1 [Compound 126] | 617 | > 10000
O=C(O)c1ccc([C@H](c2ccc(Cl)cc2)c2ccc3[nH]nc(C4CCN(S(=O)(=O)C(F)(F)F)CC4)c3c2)cc1 [Compound 231] | 4200 | > 10000
O=C(O)c1ccc(CN2CCC(c3c4cc(C(c5ccc(Cl)cc5)c5ccc(Cl)cc5)ccc4nn3C3CC3)CC2)nc1 [Compound 252] | 77 | > 10000
O=C(O)c1cccc(S(=O)(=O)N2CCC(Nc3n[nH]c4ccc(C(c5ccc(Cl)cc5)c5ccc(Cl)cc5)cc34)CC2)c1 [Compound 128] | 1220 | > 10000
